Data: US12186405B2, “Cleavable tetrazine used in bio-orthogonal drug activation” (TAGWORKS PHARMACEUTICALS B.V., priority 2016, dated 2025)

Legend:
[1] = Reactivity (second order rate constant k2) between TZ Triggers and TCO Activator 4.9 in MeCN at 20° C.; type: physicochemical
Procedure: The second order rate constant of the reaction (k2) between a TZ and TCO 4.9 was determined under pseudo first order conditions in MeCN at 20° C. using UV spectroscopic monitoring. […] From the decrease of this absorption, the half-life of the pseudo first order reaction between TZ and TCO was determined. The second order rate constant k2 was obtained by calculation from this half-life and the concentration of TCO

[2] = Rate of release of Constructs from IEDDA adducts formed by activation of TZ Trigger with TCO Activator 4.9; type: physicochemical
Procedure: (§1) Then, 10 μL of a 50 mM TCO 4.9 stock solution in DMSO (5.0×10^−7 mol TCO) was added. After the complete disappearance of the pink color (this takes typically between 5 and 30 min, and is due to the IEDDA reaction between TZ and TCO thereby forming IEDDA adducts), the sample was diluted with PBS to a total volume of 1 mL (t=0). […] At selected time points, this solution was analyzed by HPLC-PDA/MS. The decrease of the IEDDA adduct absorption(s) and/or the rise of the leaving group absorption indicated the conversion of the release reaction. […] Alternatively, the rate of the release reaction can be indicated by the conversion (in %) after a certain reaction time (in hours).

[3] = Stability of tetrazine (TZ) Triggers in a MeCN/PBS mixture
Procedure: (§2) 10 μL of a 25 mM TZ stock solution in DMSO (2.5×10^−7 mol TZ) was diluted with MeCN and PBS to a total volume of 1 mL. The aqueous solution was incubated at 20° C. or at 37° C. At selected time points, the TZ solution was analyzed by HPLC-PDA/MS.

[4] = Rate of release of Constructs from IEDDA adducts formed by activation of TZ Trigger with TCO Activator 4.9; type: physicochemical; conditions: Method F: MeCN at 37° C.; 23 h
[5] = Rate of release of a Construct from the IEDDA adduct in 50% mouse serum/PBS; type: in vitro ADME; conditions: 37° C., 21 h
Procedure: 10 μL of a 25 mM TZ stock solution in DMSO (2.5×10^−7 mol TZ) was diluted with MeCN (50 μL), PBS (475 μL), and mouse serum (475 μL). Then, a stock solution of the appropriate TCO (20 μL 50 mM in DMSO; 1.0×10^−6 mol) was added, and the mixture was incubated at 37° C. At selected time points, aliquots (250 μL) were taken, diluted with cold MeCN (500 μL), stored at 4° C. for 30 min, and then centrifuged at 13400 rpm for 5 min. Part of the clear supernatant (250 μL) was diluted with water (500 μL) and the sample was analyzed by HPLC-PDA/MS.

[6] = Stability of TZ Triggers in 50% mouse serum/PBS; type: in vitro ADME; conditions: 37° C.
Procedure: The mixture was incubated at 37° C. […] The stability was determined as outlined in Example 5.

physchem = conditions: buffer
Procedure: as §2

[7] = Rate of release of Constructs as Example 7 but after reaction with sTCO 4.8; type: physicochemical; conditions: Method E: 5% MeCN in PBS at 37° C.
Procedure: as §1, with “Then, 10 μL of a 50 mM TCO 4.9 stock solution in DMSO (5.0×10^−7 mol TCO) was added.” left out

[8] = Reactivity (k2) as Example 6 but assessed with sTCO 4.8; type: physicochemical; conditions: assessed with sTCO 4.8 and not TCO 4.9; MeCN at 20° C.
Procedure: A cuvette was filled with 3 mL of a 3.33 mM TCO solution in MeCN (1.0×10^−5 mol TCO) and this solution was equilibrated at 20° C. […] From the decrease of this absorption, the half-life of the pseudo first order reaction between TZ and TCO was determined. The second order rate constant k2 was obtained by calculation from this half-life and the concentration of TCO

[9] = tested on: LS174T colon carcinoma xenografts; assay: In vivo on-tumor reaction between ADC and TCO activators (tumor blocking, ^111In-TCO probe uptake); design: species or system mouse; conditions: ADC (2 mg/kg), one hour later ^111In-TCO probe, 4 h after probe injection
Procedure: DOTA-PEG11-TCO probe 4.4 was labeled with indium-111 in 0.2 M ammonium acetate buffer (pH 6.0) for 10 min at 60° C. followed by a DTPA-challenge to complex any unreacted radiometal. The radiolabeling yield (>95%) and radiochemical purity (>95%) of the obtained ^111In-TCO probe was assessed by radio-ITLC and radio-RP-HPLC, respectively. The on-tumor reactivity between AVP0450-15.4 ADC and two different activators, sTCO—COOH (4.8) and sTCO-PEG11-OH (4.6) in two different doses (100 and 1000 eq with respect to ADC) was evaluated with an in vivo competition assay (tumor blocking), as previously described for a CC49-TCO-Dox conjugate and tetrazine-activators (R. Rossin et al., Bioconjug Chem 2016, 27, 1697-1706). Briefly, mice bearing subcutaneous LS174T colon carcinoma xenografts (n=4 per group) were administered the ADC (2 mg/kg) followed after 48 h by the activator and, one hour later, by the ^111In-TCO probe (1 eq with respect to ADC). The probe uptake in tumors was then compared with mice that received the ADC followed only by the ^111In-TCO probe (no blocking) and with mice that received the ^111In-TCO probe alone (complete blocking). All mice were euthanized 4 h after probe injection. Blood samples were obtained from heart puncture, tumors and other tissues of interest were dissected, blotted dry, weighed and counted in a gamma-counter.

[10] = Method C: 20% MeCN in PBS at 37° C., 16 h
[11] = Method A: 33% MeCN in PBS at 20° C., 16 h

CC(OC(=O)NCc1ccccc1)c1nnc(C(C)OC(=O)NCc2ccccc2)nn1 (mixture of isomers) [Compound 2.5]
Reactivity k2 ([1]; TZ with TCO in MeCN at 20° C.): 1.5 M⁻¹ s⁻¹

CC(OC(=O)N(C)Cc1ccccc1)c1nnc(C(C)OC(=O)N(C)Cc2ccccc2)nn1 (mixture of isomers) [Compound 2.36]
Release % (conversion) [2, 10]: 100% (16 h)

CC(OC(=O)N(c1ccccc1)C(C)C)c1nnc(C(C)OC(=O)N(c2ccccc2)C(C)C)nn1 (mixture of isomers) [Compound 2.40]
Release % (conversion) ([2]; Method C: 20% MeCN in PBS at 37° C., 22 h): 100% (22 h) | Reactivity k2 ([1]; TZ with TCO in MeCN at 20° C.): 1.22 M⁻¹ s⁻¹

Cc1cc(C)cc(NC(=O)OC(C)c2nnc(-c3ccccc3)nn2)c1 (racemic) [Compound 2.17]
Reactivity k2 ([1]; TZ with TCO in MeCN at 20° C.): 4.5 M⁻¹ s⁻¹

CC(C)c1nnc(C(C)OC(=O)N(C)c2ccccc2)nn1 (racemic) [Compound 2.20]
Release % (conversion) ([2]; Method C: 20% MeCN in PBS at 37° C., 1.3 h): 45% | Release % (conversion) [2, 10]: 100% | Reactivity k2 ([1]; TZ with TCO in MeCN at 20° C.): 0.19 M⁻¹ s⁻¹

CC(OC(=O)N(C)Cc1ccccc1)c1nnc(-c2ccccc2)nn1 (racemic) [Compound 2.21]
Reactivity k2 ([1]; TZ with TCO in MeCN at 20° C.): 2.54 M⁻¹ s⁻¹

CC(OC(=O)N(C)c1ccccc1)c1nnc(-c2ccccc2)nn1 (racemic) [Compound 2.22]
Reactivity k2 ([1]; TZ with TCO in MeCN at 20° C.): 2.51 M⁻¹ s⁻¹

O=C(NCc1ccccc1)OCc1nnc(COC(=O)NCc2ccccc2)nn1 [Compound 2.4]
Reactivity k2 ([1]; TZ with TCO in MeCN at 20° C.): 24 M⁻¹ s⁻¹

CC(OC(=O)c1ccccc1)c1nnc(C(C)OC(=O)c2ccccc2)nn1 (centres unmarked) [Compound 2.7]
half-life at 250 µM [3]: 18 h | Release % (conversion) [2, 11]: 96% (16 h)

CC(OC(=O)OCc1ccccc1)c1nnc(C(C)OC(=O)OCc2ccccc2)nn1 (centres unmarked) [Compound 2.8]
half-life at 250 µM [3]: 6.5 h | Release % (conversion) [2, 11]: 100% (16 h)

O=C(OCc1nnc(-c2ccccc2)nn1)Oc1ccccc1 [Compound 2.18]
Release % (conversion) [4]: 10% (23 h) | half-life at 250 µM [3]: < 4 h

CC(C)c1nnc(COC(=O)N(C)Cc2ccccc2)nn1 [Compound 2.19]
Release % (conversion) ([5]; Dienophile 4.0, axial isomer): 61% (21 h) | Reactivity k2 ([1]; TZ with TCO in MeCN at 20° C.): 0.79 M⁻¹ s⁻¹ | Stability t1/2 [6]: 32 h

CN(Cc1ccccc1)C(=O)OCc1nnc(CCN(C)C(=O)OC(C)(C)C)nn1 [Compound 2.24]
Release % (conversion) ([5]; Dienophile 4.0, axial isomer): 51% (21 h) | Reactivity k2 ([1]; TZ with TCO in MeCN at 20° C.): 4.6 M⁻¹ s⁻¹ | Stability t1/2 [6]: 16 h

CC(C)c1nnc(C(C)OC(=O)N(Cc2ccccc2)C(C)C)nn1 (centres unmarked) [Compound 2.42]
Release % (conversion) ([5]; Dienophile 4.8, endo isomer): 77% (21 h) | half-life at 250 µM [3]: 650 h | Release % (conversion) [2, 10]: 100% (16 h) | Reactivity k2 ([1]; TZ with TCO in MeCN at 20° C.): 0.21 M⁻¹ s⁻¹ | half-life at 248 µM ([6]; 50% mouse serum in PBS, read-out: Stability t1/2 (converted)): 55 h

CC(OC(=O)N(C)Cc1ccccc1)c1nnc(-c2ccc(NC(=O)OC(C)(C)C)cc2)nn1 (centres unmarked) [Compound 2.48]
half-life at 250 µM [3]: > 4800 h | Reactivity k2 ([1]; TZ with TCO in MeCN at 20° C.): 1.46 M⁻¹ s⁻¹

CC(OC(=O)N(C)Cc1ccccc1)c1nnc(-c2ccc(N)cc2)nn1 (centres unmarked) [Compound 2.49]
half-life at 250 µM [3]: > 4800 h | Reactivity k2 ([1]; TZ with TCO in MeCN at 20° C.): 0.44 M⁻¹ s⁻¹

O=C(Nc1ccccc1)OC/C=C/c1nnc(-c2ccccc2)nn1 [Compound 2.53]
half-life at 250 µM [3]: > 400 h

CC(C)c1nnc(/C=C/COC(=O)Nc2ccccc2)nn1 [Compound 2.57]
half-life at 250 µM (physchem): > 400 h | Reactivity k2 ([1]; TZ with TCO in MeCN at 20° C.): 0.33 M⁻¹ s⁻¹

O=C(NCc1nnc(CNC(=O)Oc2ccccc2)nn1)Oc1ccccc1 [Compound 3.2]
Release % (conversion) ([2]; Method B: 33% MeCN in PBS at 37° C., 19 h): 25% (19 h)

O=C(NC1CCCC1c1nnc(-c2ccccc2)nn1)Oc1ccccc1 (centres unmarked) [Compound 3.25]
half-life (physchem): > 140 h | Release % (conversion) ([2]; Method G: 50% MeCN in PBS at 37° C., 16 h): 57% (16 h)

O=C(Oc1ccccc1)N1CCCC1c1nnc(-c2ccccc2)nn1 (centres unmarked) [Compound 3.27]
half-life at 250 µM [3]: > 150 h | Release % (conversion) ([2]; Method C: 20% MeCN in PBS at 37° C., 24 h): 49% | Release % (conversion) ([2]; Method C: 20% MeCN in PBS at 37° C., 48 h): 72%

CCN(Cc1nnc(-c2cccc(NC(=O)COCCOCCOCCOCCOCCOCCOCCOCCOCCOCCOC)c2)nn1)C(=O)Oc1ccc(COC(=O)Nc2ccc3c(C)cc(=O)oc3c2)cc1 [Compound 3.33]
half-life (physchem): 200 h | Release % (conversion) ([2]; Method E: 5% MeCN in PBS at 37° C., 1 h): 50% | Release % (conversion) ([2]; Method E: 5% MeCN in PBS at 37° C., 4 h): 80% | Release % (conversion) ([2]; Method E: 5% MeCN in PBS at 37° C., 72 h): 90% | Reactivity k2 ([1]; TZ with TCO in MeCN at 20° C. (cyclization series)): 4.7 M⁻¹ s⁻¹ | Release % (conversion) ([7]; 1 h): 20% | Release % (conversion) ([7]; 8 h): 80% | Reactivity k2 [8]: 520 ([5]) M^−1 s^−1

O=C(NCCOCCOCCOCCOCCOCCOCCOCCOCCOCCO)[C@@H]1[C@@H]2CC/C=C/CC[C@@H]21 [Compound 4.6]
^111In-uptake in tumor ([9]; after 48 h activator 100 eq): 0.15 ± 0.05 % ID/g | ^111In-uptake in tumor ([9]; after 48 h activator 1000 eq): 0.14 ± 0.52 % ID/g

O=C(O)[C@@H]1[C@@H]2CC/C=C/CC[C@@H]21 [Compound 4.8, (E-endo)-bicyclo[6.1.0]non-4-ene-9-carboxylic acid]
^111In-uptake in tumor ([9]; after 48 h activator 100 eq): 0.13 ± 0.03 % ID/g | ^111In-uptake in tumor ([9]; after 48 h activator 1000 eq): 0.10 ± 0.03 % ID/g
